Consider 1 substance from patent US20240052053A1, “ENHANCEMENT OF ANTIBODY-DEPENDENT CELL-MEDIATED CYTOTOXICITY (ADCC)” (IO Biotech ApS, priority 2017, published 2024).

In the experiment the test system is U266 myeloma cells. The experiment can be described thus: 51Cr-release cytotoxic assay with PD-L1-specific CTLs. As to conditions: U266 cells pretreated with IFN-γ. It counts as cell-based, human. As to the method:
The cytotoxicity assay was performed as in Example 1. Briefly, HLA-A2-positive CTLs that were specific to PD-L1 were thawed, rested over-night and used as effector cells against 51 Cr-labeled HLA-A2-positive U266 myeloma cells in different effector to target (E:T)-cell ratios.

Entries after “also recorded” stand apart in the source; their conditions may differ.

On to “IFN-γ: Interferon gamma, a major inducer of PD-L1 expression, used to pretreat U266 cells”, for which the “killing of U266 cells by PD-L1 specific CTLs after pretreatment” value is given as “more susceptible to being killed; also recorded: tendency towards increased killing”.
